Measurements: US9056837B2, “Heterocycle compounds and uses thereof” (Intra-Cellular Therapies, Inc., priority 2007, dated 2015)

Experiment: Mouse brain/plasma distribution assay for tissue levels of test compounds
Type: in vivo, C57b1/6 black mice
Settings: C57Bl/6, mouse, brain, sc; mice, subcutaneous single injection of 1 mg (10 mM DMSO solution); four hours post-administration; measured minus 2% of plasma
Experimental: Compounds are administered subcutaneously to C57b1/6 black mice as a single injection of 1 mg using a 10 mM DMSO solution. After 2 or 4 hours, the mice are sacrificed. Trunk blood is collected into tubes with potassium-EDTA as anticoagulant and centrifuged at 5000×g for 10 min. The upper plasma phase is decanted from cellular components. Whole brain is sonicated with 20 mM Tris-HCl, 135 mM NaCl, pH 7.4 buffer, giving at 200 mg/mL (w/v) homogenate. Brain homogenate or plasma is extracted with 2 volumes of acetonitrile and clarified by centrifugation at 15,000×g for 20 min. Extracts are separated by HPLC using a Waters Alliance 2695 separations module with a Sunfire™ C18 column (3.5 micron, 2.1×50 mm) and a gradient of methanol over 15 min in a mobile phase of 0.1% formic acid. The separation is monitored by a Micromass Quattro Micro triple-quadrupole mass-spectrometric detector. Compound standardization is performed by methods analogous to those previously reported, e.g., by Zhao, M., et al. (2005) J Chromatogr B Analyt Technol Biomed Life Sci 819, 73-80; and Appels, N. M et al. (2005) Rapid Commun Mass Spectrom 19, 2187-2192. Brain concentration=measured−2% of plasma B/P ratio=brain concentration/plasma concentration

- concentration at 4 h: < 100 nM
Structure (SMILES): Cc1ccc(NC(=O)c2ccc(CN3CCN(C)CC3)cc2)cc1Nc1nccc(-c2cccnc2)n1 [imatinib]
